Patent US8207182B2, “Substituted cyclic urea derivatives and the use thereof as vanilloid receptor 1 modulators” (Gruenenthal GmbH, priority 2005, dated 2012)

Molecular target: T1, vanilloid receptor 1 (VR1/TRPV1) (Rattus norvegicus, UniProt O35433)
T1 construct: from tissue; host or cells: primary cells dissociated from rat dorsal root ganglia (DRGs), cultured for two to three days
Test: Functional investigation on the vanilloid receptor 1 (FLIPR Ca2+ influx assay, capsaicin)
Assay type: cell-based
Conditions: rat dorsal root ganglia cells, Fluo-4 FLIPR, 100 nM capsaicin
Source text: I. Functional Investigation on the Vanilloid Receptor 1 (VRI/TRPV1 Receptor)
The agonistic or antagonistic action of the substances to be investigated on the vanilloid receptor 1 (VR1/TRPV1) of the species rat can be determined using the following assay. According to this assay, the Ca^2+ influx through the receptor channel is quantified with the aid of a Ca^2+-sensitive dye (Type Fluo-4, Molecular Probes Europe BV, Leiden Netherlands) in a fluorescent imaging plate reader (FLIPR, Molecular Devices, Sunnyvale, USA).
Complete medium: 50 mL of HAMS F12 Nutrient Mixture (Gibco Invitrogen GmbH, Karlsruhe, Germany) with
10% by volume of FCS (fetal calf serum, Gibco Invitrogen GmbH, Karlsruhe, Germany, heat-inactivated);
2 mM L-glutamine (Sigma, Munich, Germany);
1% by weight of AA solution (antibiotic/antimycotic solution, PAA, Pasching, Austria) and 25 ng/mL of Medium NGF (2.5 S, Gibco Invitrogen GmbH, Karlsruhe, Germany) […]
The DRGs are in each case repeatedly suspended, drawn through No. 1, No. 12 and No. 16 needles by means of a syringe and transferred to 50 mL Falcon tubes and these are filled to 15 mL with complete medium. […] The resulting pellet is in each case taken up in 250 μL of complete medium and the cell count is determined. […]

T1 sequence (O35433 whole entry): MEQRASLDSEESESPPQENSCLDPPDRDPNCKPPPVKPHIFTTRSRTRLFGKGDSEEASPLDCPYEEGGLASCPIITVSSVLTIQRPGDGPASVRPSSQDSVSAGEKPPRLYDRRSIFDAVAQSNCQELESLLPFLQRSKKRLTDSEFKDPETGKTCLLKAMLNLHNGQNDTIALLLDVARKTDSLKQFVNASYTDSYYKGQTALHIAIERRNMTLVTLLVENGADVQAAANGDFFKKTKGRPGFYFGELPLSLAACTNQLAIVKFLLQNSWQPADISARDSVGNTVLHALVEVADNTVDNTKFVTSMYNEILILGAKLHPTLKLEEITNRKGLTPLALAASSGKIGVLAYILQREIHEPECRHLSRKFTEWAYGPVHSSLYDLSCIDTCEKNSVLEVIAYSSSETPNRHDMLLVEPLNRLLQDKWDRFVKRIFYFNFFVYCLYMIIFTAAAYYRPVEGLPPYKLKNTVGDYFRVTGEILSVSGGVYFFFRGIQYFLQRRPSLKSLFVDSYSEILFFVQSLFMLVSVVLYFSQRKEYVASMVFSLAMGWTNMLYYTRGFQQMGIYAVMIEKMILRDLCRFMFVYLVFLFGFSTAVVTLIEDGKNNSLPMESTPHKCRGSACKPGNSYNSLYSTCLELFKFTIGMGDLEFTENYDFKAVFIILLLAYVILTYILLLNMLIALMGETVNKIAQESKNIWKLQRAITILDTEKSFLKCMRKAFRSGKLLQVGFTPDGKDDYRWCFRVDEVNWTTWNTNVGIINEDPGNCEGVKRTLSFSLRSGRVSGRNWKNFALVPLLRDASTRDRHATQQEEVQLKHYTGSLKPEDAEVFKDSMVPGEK

IC50 | SMILES
9.4 µM | CC(C)(C)c1ccc(CN2CCN(Cc3ccc(NS(C)(=O)=O)cc3)C2=O)cc1 [Example 4, N-{4-[3-(4-tert-butylbenzyl)-2-oxoimidazolidin-1-ylmethyl]-phenyl}methanesulfonamide]
2.9 µM | CC(C)(C)c1ccc(CN2CCCN(Cc3ccc(NS(C)(=O)=O)cc3)C2=O)cc1 [Example 5, N-{4-[3-(4-tert-butylbenzyl)-2-oxotetrahydropyrimidin-1-ylmethyl]-phenyl}methanesulfonamide]
